Data on 14 compounds can be found in ChEMBL document CHEMBL1131484, “Human growth hormone-releasing hormone hGHRH(1-29)-NH2: systematic structure-activity relationship studies” (J Med Chem, 1998).

Values joined by “and” are separate entries in the source; they are usually repeats but may differ in a detail not shown here. Equal values may be shown once. Square brackets hold non-standard residues; d marks the D form. Peptide text beside a SMILES is read from it. αMeY = C[C@](N)(Cc1ccc(O)cc1)C(=O)O; Nle = CCCC[C@H](N)C(=O)O

The target in this assay is T1, Growth hormone-releasing hormone receptor (Rattus norvegicus) (UniProt Q02644).
T1 sequence (whole entry): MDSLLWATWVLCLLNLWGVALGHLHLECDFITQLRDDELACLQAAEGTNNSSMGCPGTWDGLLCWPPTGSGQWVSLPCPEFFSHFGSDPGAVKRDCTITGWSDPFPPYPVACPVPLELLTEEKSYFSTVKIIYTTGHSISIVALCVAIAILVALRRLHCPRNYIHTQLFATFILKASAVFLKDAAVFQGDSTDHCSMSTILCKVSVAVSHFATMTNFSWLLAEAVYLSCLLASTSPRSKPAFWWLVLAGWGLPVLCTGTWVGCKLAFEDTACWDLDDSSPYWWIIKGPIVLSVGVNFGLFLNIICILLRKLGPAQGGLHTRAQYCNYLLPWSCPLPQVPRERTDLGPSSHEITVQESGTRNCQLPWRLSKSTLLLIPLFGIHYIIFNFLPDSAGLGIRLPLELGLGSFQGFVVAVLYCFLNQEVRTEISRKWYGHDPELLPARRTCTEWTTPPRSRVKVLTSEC
The experiment in a line: Potency for growth hormone releasing hormone receptor (GHRFR) relative to human GHRH(1-40)OH- in the rat pituitary cell culture assay. Type of assay: functional, cell-based. To be noted: Pituitary gland cell.
`CC[C@H](C)[C@H](NC(=O)[C@H](C)NC(=O)[C@H](CC(=O)O)NC(=O)[C@H](C)NC(=O)[C@@H](N)Cc1ccc(O)cc1)C(=O)N[C@@H](Cc1ccccc1)C(=O)N[C@H](C(=O)N[C@@H](CC(N)=O)C(=O)N[C@@H](CO)C(=O)N[C@@H](Cc1ccc(O)cc1)C(=O)N[C@@H](CCCN=C(N)N)C(=O)N[C@@H](CCCCN)C(=O)N[C@H](C(=O)N[C@@H](CC(C)C)C(=O)NCC(=O)N[C@@H](CCC(N)=O)C(=O)N[C@@H](CC(C)C)C(=O)N[C@@H](CO)C(=O)N[C@@H](C)C(=O)N[C@@H](CCCN=C(N)N)C(=O)N[C@@H](CCCCN)C(=O)N[C@@H](CC(C)C)C(=O)N[C@@H](CC(C)C)C(=O)N[C@@H](CCC(N)=O)C(=O)N[C@@H](CC(=O)O)C(=O)N[C@H](C(=O)N[C@@H](CCSC)C(=O)N[C@@H](C)C(=O)N[C@@H](CCCN=C(N)N)C(N)=O)[C@@H](C)CC)C(C)C)[C@@H](C)O` (stereo in doubt; 39) had a Relative potency of 2.2.

With `CCCC[C@H]1NC(=O)[C@H]([C@@H](C)CC)NC(=O)[C@H](NC(=O)[C@H](Cc2c[nH]cn2)NC(=O)[C@H](CC(C)C)NC(=O)[C@H](CC(C)C)NC(=O)[C@H](CCCCN)NC(=O)[C@H](CCCN=C(N)N)NC(=O)[C@H](Cc2ccccc2)NC(=O)[C@@H](NC(=O)[C@H](CC(C)C)NC(=O)[C@H](CCC(N)=O)NC(=O)[C@H](C)NC(=O)[C@H](CC(C)C)NC(=O)[C@@H](NC(=O)[C@H](CCCN=C(N)N)NC(=O)[C@H](CCCN=C(N)N)NC(=O)[C@H](Cc2ccc(O)cc2)NC(=O)[C@H](CO)NC(=O)[C@H](CO)NC(=O)[C@@H](NC(=O)[C@H](Cc2ccccc2)NC(=O)[C@@H](NC(=O)[C@H](C)NC(=O)[C@H](CC(=O)O)NC(=O)[C@H](C)NC(=O)[C@@](C)(N)Cc2c[nH]cn2)[C@@H](C)CC)[C@@H](C)O)[C@@H](C)CC)[C@@H](C)CC)CSSC[C@@H](C(N)=O)NC(=O)[C@H](CC(N)=O)NC1=O`, the Relative potency was 1.9 and 4.4.

On to `CC[C@H](C)[C@H](NC(=O)[C@H](C)NC(=O)[C@H](CC(=O)O)NC(=O)[C@H](C)NC(=O)[C@@H](N)Cc1ccc(O)cc1)C(=O)N[C@@H](Cc1ccccc1)C(=O)N[C@H](C(=O)N[C@@H](CC(N)=O)C(=O)N[C@@H](CO)C(=O)N[C@@H](Cc1ccc(O)cc1)C(=O)N[C@@H](CCCN=C(N)N)C(=O)N[C@@H](CCCCN)C(=O)N[C@H](C(=O)N[C@@H](CC(C)C)C(=O)NCC(=O)N[C@H](CCC(N)=O)C(=O)N[C@H](CC(C)C)C(=O)N[C@H](CO)C(=O)N[C@H](C)C(=O)N[C@H](CCCN=C(N)N)C(=O)N[C@H](CCCCN)C(=O)N[C@@H]1CCC(=O)NCCCC[C@@H](C(=O)N[C@H](C(=O)N[C@@H](CCSC)C(=O)N[C@@H](CO)C(=O)N[C@@H](CCCN=C(N)N)C(N)=O)[C@@H](C)CC)NC(=O)[C@H](CCC(N)=O)NC(=O)[C@@H](CC(C)C)NC1=O)C(C)C)[C@@H](C)O`, for which the Relative potency is 5.3 and 8.8.

`CC[C@@H](C)[C@@H](NC(=O)[C@@H](CC(=O)O)NC(=O)[C@H]1CCCCNC(=O)CC[C@H](NC(=O)[C@H](CCCN=C(N)N)NC(=O)[C@H](C)NC(=O)[C@H](CO)NC(=O)[C@H](CC(C)C)NC(=O)[C@H](CCC(N)=O)NC(=O)CNC(=O)[C@H](CC(C)C)NC(=O)[C@@H](NC(=O)[C@H](CCCCN)NC(=O)[C@H](CCCN=C(N)N)NC(=O)[C@H](Cc2ccc(O)cc2)NC(=O)[C@H](CO)NC(=O)[C@H](CC(N)=O)NC(=O)[C@@H](NC(=O)[C@H](Cc2ccccc2)NC(=O)[C@@H](NC(=O)[C@H](C)NC(=O)[C@H](CC(=O)O)NC(=O)[C@H](C)NC(=O)[C@@H](N)Cc2ccc(O)cc2)[C@@H](C)CC)[C@@H](C)O)C(C)C)C(=O)N[C@@H](CC(C)C)C(=O)N[C@H](CC(C)C)C(=O)N1)C(=O)N[C@H](CCSC)C(=O)N[C@H](CO)C(=O)N[C@H](CCCN=C(N)N)C(N)=O` displayed a Relative potency of 4.5.

In the case of H-YADAIFTNSYRKVLGQLSARKLLQAIMSR-NH2, the Relative potency amounted to 1.3.

H-YADAIFTASYRKVLGQLSARKLLQDIMSR-NH2 displayed a Relative potency of 2.1.

Compound H-YADAIFTNSYRKVLGQLSAAKLLQDIMSR-NH2 returned a Relative potency of 0.3.

The compound `CCCC[C@H](NC(=O)[C@@H](NC(=O)[C@H](CC(=O)O)NC(=O)[C@H](CCC(N)=O)NC(=O)[C@H](CC(C)C)NC(=O)[C@H](CC(C)C)NC(=O)[C@H](CCCCN)NC(=O)[C@H](CCCN=C(N)N)NC(=O)[C@H](C)NC(=O)[C@H](CO)NC(=O)[C@H](CC(C)C)NC(=O)[C@H](CCC(N)=O)NC(=O)[C@H](C)NC(=O)[C@H](CC(C)C)NC(=O)[C@@H](NC(=O)[C@H](CCCCN)NC(=O)[C@H](CCCN=C(N)N)NC(=O)[C@H](Cc1ccc(O)cc1)NC(=O)[C@H](CO)NC(=O)[C@H](CC(N)=O)NC(=O)[C@@H](NC(=O)[C@H](Cc1ccccc1)NC(=O)[C@@H](NC(=O)[C@H](C)NC(=O)[C@H](CC(=O)O)NC(=O)[C@H](C)NC(=O)[C@@](C)(N)Cc1ccc(O)cc1)[C@@H](C)CC)[C@@H](C)O)C(C)C)[C@@H](C)CC)C(=O)N[C@@H](CO)C(=O)N[C@@H](CCCN=C(N)N)C(N)=O` (H-[αMeY]ADAIFTNSYRKVLAQLSARKLLQDI[Nle]SR-NH2) displayed a Relative potency of 5.8.

The compound H-YADAAFTNSYRKVLGQLSARKLLQDIMSR-NH2 came in with a Relative potency of 0.1.

Compound `CC[C@H](C)[C@H](NC(=O)[C@H](C)NC(=O)[C@H](CC(=O)O)NC(=O)[C@H](C)NC(=O)[C@@H](N)Cc1ccc(O)cc1)C(=O)N[C@@H](Cc1ccccc1)C(=O)N[C@H](C(=O)N[C@@H](CC(N)=O)C(=O)N[C@@H](CO)C(=O)N[C@@H](Cc1ccc(O)cc1)C(=O)N[C@@H](CCCN=C(N)N)C(=O)N[C@@H](CCCCN)C(=O)N[C@H](C(=O)N[C@@H](CC(C)C)C(=O)NCC(=O)N[C@@H](CCC(N)=O)C(=O)N[C@@H](CC(C)C)C(=O)N[C@@H](CO)C(=O)N[C@@H](C)C(=O)N[C@@H](CCCN=C(N)N)C(=O)N[C@@H](CCCCN)C(=O)N[C@@H](CC(C)C)C(=O)N[C@@H](CC(C)C)C(=O)N[C@@H](CCC(N)=O)C(=O)N[C@@H](CC(=O)O)C(=O)N[C@H](C(=O)N[C@@H](CCSC)C(=O)N[C@@H](CO)C(=O)N[C@@H](CCCN=C(N)N)C(=O)N[C@@H](CCC(N)=O)C(=O)N[C@H](CCC(N)=O)C(=O)NCC(=O)N[C@@H](CCC(=O)O)C(=O)N[C@@H](CO)C(=O)N[C@@H](CC(N)=O)C(=O)N[C@@H](CCC(N)=O)C(=O)N[C@@H](CCC(=O)O)C(=O)N[C@@H](CCCN=C(N)N)C(=O)NCC(=O)N[C@@H](C)C(=O)O)[C@@H](C)CC)C(C)C)[C@@H](C)O` registered a Relative potency of 1.

As to H-YADAIFTNSYRKVLGALSARKLLQDIMSR-NH2, the Relative potency came out at 1.5.

H-YADAIFTNSYRKVLGQASARKLLQDIMSR-NH2 returned a Relative potency of 0.39.

Turning to H-AADAIFTNSYRKVLGQLSARKLLQDIMSR-NH2, the Relative potency worked out at 0.01.

Consider H-YADAIFTNSYRKVLGQLSARKLLQDIMSA-NH2, for which the Relative potency turned out to be 0.59.
